Source: publication PMC12444550, “Design, Synthesis, and Trypanosomicidal Evaluation of Eugenol-Based Azole Hybrids: Discovery of an In Vitro Active and Selective Compound” (ACS Omega, 2025)
Where two headings read alike, the source gives them in different places.

Key:
[1] = tested on: T. cruzi intracellular amastigote forms; settings: in vitro; cited from earlier work
Trypanosoma cruzi = settings: cited from earlier work
[2] = tested on: T. cruzi Y strain trypomastigote forms; experiment: Anti-T. cruzi activity against trypomastigote forms; type: cell-based; settings: for EC50: read-out: Y strain T. cruzi EC50 Trypomastigote; for trypanosomicidal activity (parasite mortality): at 100 μmol·L^–1, trypomastigotes; for SI (selectivity index): mammalian cell CC50 versus trypomastigote EC50
Procedure: (§1) The T. cruzi Y strain was selected for this study due to its known partial sensitivity to benznidazole chemotherapy.
Trypomastigote forms of T. cruzi (2.5 × 10^5 parasites/well) were incubated in 96-well plates with serial dilutions of the hybrid compounds (100, 50, 25, and 12.5 μmol·L^–1) for 24 h at 37 °C in a humidified 5% CO2 atmosphere. Following incubation, parasite viability was assessed under an optical microscope by evaluating motility, and the number of live parasites was quantified using a Neubauer chamber. Untreated parasite cultures were maintained in parallel as negative controls. The mortality percentage was calculated by comparing the number of live parasites in treated wells to that of untreated controls. All experiments were conducted in triplicate with at least two technical replicates per concentration. EC50 values were determined by nonlinear regression using GraphPad Prism 8 and CompuSyn software (Biosoft, U.K.).

[3] = tested on: T. cruzi Y strain amastigote forms; experiment: Anti-T. cruzi activity against intracellular amastigote forms in infected Vero or H9c2 cells; type: cell-based, Trypanosoma cruzi; settings: Vero or H9c2 cells infected with amastigote forms, 48 h of incubation, fixed concentration 50 μmol·L^–1
Procedure: as §1
Vero or H9c2 cells (7.5 × 10^3 cells/well) were seeded on sterile glass coverslips placed in 24-well plates and incubated for 24 h at 37 °C in 5% CO2 to allow cell adhesion. Following this period, cells were infected with trypomastigote forms of T. cruzi Y strain at a ratio of 20 parasites per cell. After 24 h of parasite-host interaction, noninternalized parasites were removed by washing with fresh medium, and the infected monolayers were incubated for 48 h with the hybrid compounds at a fixed concentration of 50 μmol·L^–1, following toxicity parameters. Infected but untreated cells were included as negative controls in all experiments. At the end of the treatment period, coverslips were washed with medium, fixed with methanol, and stained with Giemsa solution. After drying, the coverslips were mounted onto microscope slides using Entellan (Merck) and analyzed under a light microscope at 100× magnification. At least 200 cells were counted per coverslip, and only intracellular parasite forms with characteristic morphology were considered for analysis. The infection index was determined by the percentage of infected cells relative to the total number of cells analyzed. The inhibition percentage was calculated based on the reduction in infection in treated samples compared to the untreated control. Dose–response curves were constructed using GraphPad Prism 8 and CompuSyn (Biosoft, U.K.). All experiments were performed in triplicate, with at least two technical replicates per condition.

[4] = Cell viability assay (resazurin), Vero cells; type: cell-based; settings: African green monkey, Vero cells; resazurin method; 48 h incubation; read-out: Cytotoxicity CC50 Vero
Procedure: (§2) Vero and H9c2 cells (2 × 10^3 cells/well) were seeded in 96-well plates in Dulbecco’s modified Eagle’s medium (DMEM) supplemented with 5% fetal bovine serum (FBS) and incubated for 24 h at 37 °C in a humidified atmosphere with 5% CO2. After incubation, the medium was replaced with fresh DMEM + 5% FBS containing serial dilutions of each hybrid compound (1400 to 175 μmol·L^–1). Cells were exposed to the compounds for 48 h. Four wells with untreated cells served as a positive control. Additionally, eight wells without cells were maintained as negative controls: four containing DMEM + 5% FBS + resazurin (1 mmol·L^–1), and four containing only DMEM + 5% FBS. After the 48-h incubation, the treatment medium was removed and replaced with DMEM + 5% FBS containing 10% resazurin solution (1 mmol·L^–1). Plates were incubated for an additional 6 h, and then absorbance was measured at 570 and 600 nm using a microplate reader. Dose–response curves were constructed using GraphPad Prism 8 software, and CC50 values were determined by nonlinear regression.

[5] = Cell viability assay (resazurin), H9c2 cells; type: cell-based; settings: rat, resazurin method, 48 h incubation, read-out: Cytotoxicity CC50 H9c2
Procedure: as §2

Vero cells = experiment: Cell viability assay (resazurin), Vero cells; type: cell-based; settings: 48 h; 1400 to 175 μmol·L^–1
Procedure: as §2

[6] = Trypanosoma cruzi, 24 h, 24 h of incubation, Y strain

| SMILES | EC50 [2, 6] [µM] | EC50 ([3]; Trypanosoma cruzi) [µM] | CC50 at 48 h [4] [µM] | CC50 at 48 h [5] [µM] | other results |
| --- | --- | --- | --- | --- | --- |
| C[C@@H](c1nc(-c2ccc(C#N)cc2)cs1)[C@](O)(Cn1cncn1)c1ccc(F)cc1F [ravuconazole] |  |  |  |  | inhibitory concentration against intracellular amastigotes (in words) [1]: subnanomolar concentrations |
| O=C(Cn1ccnc1[N+](=O)[O-])NCc1ccccc1 [Bz, benznidazole] | 21 |  |  |  | parasitological cure rates (Trypanosoma cruzi; acute or early congenital infections): 80–90%; treatment discontinuation due to adverse effects (Trypanosoma cruzi; dermatological, gastrointestinal and neurological symptoms): 10–20 % of patients |
| COc1cc(CC(O)Cn2cncn2)cc([N+](=O)[O-])c1OC (racemic) [Compound 21, (±)-1-(3,4-Dimethoxy-5-nitrophenyl)-3-(1H-1,2,4-triazol-1-yl)propan-2-ol] | > 100 | > 50 | > 1300 | > 1300 |  |
| COc1ccc(CC(O)Cn2ccnn2)cc1OC (racemic) [Compound 32, (±)-1-(3,4-Dimethoxyphenyl)-3-(1H-1,2,3-triazol-1-yl)propan-2-ol] | > 100 | > 50 | > 1300 | > 1300 |  |
| COc1cc(CC(O)Cn2ccnc2)cc([N+](=O)[O-])c1OCc1ccccc1 (racemic) [Compound 29, (±)-1-(4-(Benzyloxy)-3-methoxy-5-nitrophenyl)-3-(1H-imidazol-1-yl)propan-2-ol] |  | > 50 | > 1300 | > 1300 | EC50 ([2]; 24 h of incubation, Y strain): 26.5 µM; trypanosomicidal activity (parasite mortality) ([2]; 24 h): approximately 99%; SI (selectivity index) [2]: >49 |
| COc1cc(CC(O)Cn2cncn2)ccc1O (racemic) [Compound 18, (±)-4-(2-Hydroxy-3-(1H-1,2,4-triazol-1-yl)propyl)-2-methoxyphenol] | > 100 | > 50 | > 1300 | > 1300 |  |
| COc1cc(CC(O)Cn2cncn2)cc([N+](=O)[O-])c1O (racemic) [Compound 19, (±)-4-(2-Hydroxy-3-(1H-1,2,4-triazol-1-yl)propyl)-2-methoxy-6-nitrophenol] | > 100 | > 50 | > 1300 | > 1300 |  |
| COc1ccc(CC(O)Cn2cncn2)cc1OC (racemic) [Compound 20, (±)-1-(3,4-Dimethoxyphenyl)-3-(1H-1,2,4-triazol-1-yl)propan-2-ol] | > 100 | > 50 | > 1400 | > 1300 | cytotoxicity toward Vero cells (in words) (Vero cells): significantly higher cytotoxicity |
| COc1ccc(CC(O)Cn2ccnc2)cc1OC (racemic) [Compound 26, (±)-1-(3,4-Dimethoxyphenyl)-3-(1H-imidazol-1-yl)propan-2-ol] | > 100 | > 50 | > 1300 | > 1300 |  |
| C=CCc1ccc(O)c(OC)c1 [Eug, eugenol] |  |  |  |  | EC50 ([2]; Trypanosoma cruzi, 24 h): 500 µM |
| COc1cc(CC(O)Cn2ccnc2)cc([N+](=O)[O-])c1OCc1ccccc1 (single isomer, unassigned; (+)) [(+)-29] | ~29 |  |  |  | EC50 [3]: > 50 µM; EC50 ([2]; 24 h of incubation, Y strain): 28.8 µM; mortality at 100 µM ([2]; Trypanosoma cruzi, 24 h, read-out: trypanosomicidal activity (parasite mortality)): ~99% |
| COc1cc(CC(O)Cn2cncn2)ccc1OCc1ccccc1 (racemic) [Compound 22, (±)-1-(4-(Benzyloxy)-3-methoxyphenyl)-3-(1H-1,2,4-triazol-1-yl)propan-2-ol] | > 100 | > 50 | > 1300 | > 1300 |  |
| COc1cc(CC(O)Cn2ccnn2)cc([N+](=O)[O-])c1OCc1ccccc1 (racemic) [Compound 34, (±)-1-(4-(Benzyloxy)-3-methoxy-5-nitrophenyl)-3-(1H-1,2,3-triazol-1-yl)propan-2-ol] | 38.1 | > 50 | > 1300 | > 1300 | SI (selectivity index) [2]: >34 |
| COc1cc(CC(O)Cn2ccnn2)ccc1O (racemic) [Compound 30, (±)-4-(2-Hydroxy-3-(1H-1,2,3-triazol-1-yl)propyl)-2-methoxyphenol] | > 100 | > 50 | > 1300 | > 1300 |  |
| COc1cc(CC(O)Cn2ccnc2)cc([N+](=O)[O-])c1OCc1ccccc1 (single isomer, unassigned; (-)) [(-)-29] |  |  |  |  | EC50 [3]: > 50 µM; EC50 ([2]; 24 h of incubation, Y strain, listed as (−)-29): ~29 µM; EC50 ([2]; 24 h of incubation, Y strain): 29.9 µM; trypanosomicidal activity (parasite mortality) ([2]; 24 h): approximately 99% |
| COc1cc(CC(O)Cn2ccnn2)cc([N+](=O)[O-])c1OC (racemic) [Compound 33, (±)-1-(3,4-Dimethoxy-5-nitrophenyl)-3-(1H-1,2,3-triazol-1-yl)propan-2-ol] | > 100 | > 50 | 1190 | > 1300 | cytotoxicity toward Vero cells (in words) (Vero cells): significantly higher cytotoxicity |
| COc1cc(CC(O)Cn2ccnc2)cc([N+](=O)[O-])c1OC (racemic) [Compound 27, (±)-1-(3,4-Dimethoxy-5-nitrophenyl)-3-(1H-imidazol-1-yl)propan-2-ol] | > 100 | > 50 | > 1300 | > 1300 |  |
| COc1cc(CC(O)Cn2cncn2)cc([N+](=O)[O-])c1OCc1ccccc1 (racemic) [Compound 23, (±)-1-(4-(Benzyloxy)-3-methoxy-5-nitrophenyl)-3-(1H-1,2,4-triazol-1-yl)propan-2-ol] | > 100 | > 50 | > 1300 | > 1300 | activity against trypomastigote forms (in words) ([2]; Y strain, up to 100 μmol·L^–1): inactive |
| COc1cc(CC(O)Cn2ccnn2)cc([N+](=O)[O-])c1O (racemic) [Compound 31, (±)-4-(2-Hydroxy-3-(1H-1,2,3-triazol-1-yl)propyl)-2-methoxy-6-nitrophenol] | > 100 | > 50 | > 1300 | > 1300 |  |
| COc1cc(CC(O)Cn2ccnc2)cc([N+](=O)[O-])c1O (racemic) [Compound 25, (±)-4-(2-Hydroxy-3-(1H-imidazol-1-yl)propyl)-2-methoxy-6-nitrophenol] | > 100 | > 50 | 860 | > 1300 | cytotoxicity toward Vero cells (in words) (Vero cells): significantly higher cytotoxicity |
| COc1cc(CC(O)Cn2ccnc2)ccc1OCc1ccccc1 (racemic) [Compound 28, (±)-1-(4-(Benzyloxy)-3-methoxyphenyl)-3-(1H-imidazol-1-yl)propan-2-ol] | > 100 | > 50 | > 1300 | > 1300 |  |
| CC[C@@H]([C@H](C)O)n1ncn(-c2ccc(N3CCN(c4ccc(OC[C@@H]5CO[C@@](Cn6cncn6)(c6ccc(F)cc6F)C5)cc4)CC3)cc2)c1=O [posaconazole] |  |  |  |  | inhibitory concentration against intracellular amastigotes (in words) [1]: subnanomolar concentrations |
| COc1cc(CC(O)Cn2ccnc2)ccc1O (racemic) [Compound 24, (±)-4-(2-Hydroxy-3-(1H-imidazol-1-yl)propyl)-2-methoxyphenol] | > 100 | > 50 | > 1300 | > 1300 |  |
